Source: ChEMBL document CHEMBL3045787, “Synthesis of novel 1,4-naphthoquinone derivatives: antibacterial and antifungal agents” (2013)
Values after ≈ are worked out from the molar mass of the structure shown. One block for each molecule: values may come before it. Active and inactive are the calls of the source. The calls are words filed in the database; no cut-off is given here.

Legend:
Escherichia coli [1] = test: Antibacterial activity against Escherichia coli B 906 assessed as growth inhibition after 24 to 72 hr by serial dilution method; assay type: functional, organism-based
Mycobacterium [2] = test: Antibacterial activity against Mycobacterium luteum B-917 assessed as growth inhibition at 0.1% after 24 hr by agar disk diffusion method; assay type: functional
Staphylococcus aureus [3] = test: Antibacterial activity against Staphylococcus aureus 209-P assessed as growth inhibition at 0.1% after 24 hr by agar disk diffusion method; assay type: functional
Aspergillus niger [4] = test: Antifungal activity against Aspergillus niger assessed as growth inhibition at 0.5% after 48 to 72 hr by agar disk diffusion method; assay type: functional
Yamadazyma tenuis [5] = test: Antifungal activity against Candida tenuis assessed as growth inhibition at 0.5% after 48 to 72 hr by agar disk diffusion method; assay type: functional
Yamadazyma tenuis [6] = test: Antifungal activity against Candida tenuis assessed as growth inhibition at 0.1% after 48 to 72 hr by agar disk diffusion method; assay type: functional
Aspergillus niger [7] = test: Antifungal activity against Aspergillus niger assessed as growth inhibition at 0.1% after 48 to 72 hr by agar disk diffusion method; assay type: functional
Mycobacterium [8] = test: Antibacterial activity against Mycobacterium luteum B-917 assessed as growth inhibition after 24 to 72 hr by serial dilution method; assay type: functional
Mycobacterium [9] = test: Antibacterial activity against Mycobacterium luteum B-917 assessed as growth inhibition at 0.5% after 24 hr by agar disk diffusion method; assay type: functional
Escherichia coli [10] = test: Antibacterial activity against Escherichia coli B 906 assessed as growth inhibition at 0.5% after 24 hr by agar disk diffusion method; assay type: functional
Yamadazyma tenuis [11] = test: Antifungal activity against Candida tenuis assessed as growth inhibition after 24 to 72 hr by serial dilution method; assay type: functional
Aspergillus niger [12] = test: Antifungal activity against Aspergillus niger assessed as growth inhibition after 24 to 72 hr by serial dilution method; assay type: functional
Staphylococcus aureus [13] = test: Antibacterial activity against Staphylococcus aureus 209-P assessed as growth inhibition at 0.5% after 24 hr by agar disk diffusion method; assay type: functional
Staphylococcus aureus [14] = test: Antibacterial activity against Staphylococcus aureus 209-P assessed as growth inhibition after 24 to 72 hr by serial dilution method; assay type: functional
Escherichia coli [15] = test: Antibacterial activity against Escherichia coli B 906 assessed as growth inhibition at 0.1% after 24 hr by agar disk diffusion method; assay type: functional

SMILES: O=C1C(SCCOc2ccccc2)=C(SCCOc2ccccc2)C(=O)c2ccccc21
- MIC (Escherichia coli [1]): inactive
- diameter of the inhibition zone (DIZ) (Mycobacterium [2]): 0 mm
- diameter of the inhibition zone (DIZ) (Staphylococcus aureus [3]): 0 mm
- diameter of the inhibition zone (DIZ) (Aspergillus niger [4]): 0 mm
- diameter of the inhibition zone (DIZ) (Yamadazyma tenuis [5]): 0 mm
- diameter of the inhibition zone (DIZ) (Yamadazyma tenuis [6]): 0 mm
- diameter of the inhibition zone (DIZ) (Aspergillus niger [7]): 0 mm
- MIC (Mycobacterium [8]): inactive
- diameter of the inhibition zone (DIZ) (Mycobacterium [9]): 8 mm
- diameter of the inhibition zone (DIZ) (Escherichia coli [10]): 0 mm
- MIC (Yamadazyma tenuis [11]): 125 µg/mL (≈ 270 µM)
- MIC (Aspergillus niger [12]): 7.8 µg/mL (≈ 16.9 µM)
- diameter of the inhibition zone (DIZ) (Staphylococcus aureus [13]): 0 mm
- MIC (Staphylococcus aureus [14]): inactive
- diameter of the inhibition zone (DIZ) (Escherichia coli [15]): 0 mm

SMILES: O=C1C(SCc2ccc(Cl)cc2)=C(N2CCN(c3ccccc3F)CC2)C(=O)c2ccccc21
- MIC (Escherichia coli [1]): inactive
- diameter of the inhibition zone (DIZ) (Mycobacterium [2]): 0 mm
- diameter of the inhibition zone (DIZ) (Staphylococcus aureus [3]): 0 mm
- diameter of the inhibition zone (DIZ) (Aspergillus niger [4]): 0 mm
- diameter of the inhibition zone (DIZ) (Yamadazyma tenuis [5]): 0 mm
- diameter of the inhibition zone (DIZ) (Yamadazyma tenuis [6]): 0 mm
- diameter of the inhibition zone (DIZ) (Aspergillus niger [7]): 0 mm
- MIC (Mycobacterium [8]): inactive
- diameter of the inhibition zone (DIZ) (Mycobacterium [9]): 0 mm
- diameter of the inhibition zone (DIZ) (Escherichia coli [10]): 0 mm
- MIC (Yamadazyma tenuis [11]): inactive
- MIC (Aspergillus niger [12]): inactive
- diameter of the inhibition zone (DIZ) (Staphylococcus aureus [13]): 0 mm
- MIC (Staphylococcus aureus [14]): inactive
- diameter of the inhibition zone (DIZ) (Escherichia coli [15]): 0 mm

SMILES: CCOC1=C(Sc2ccc(O)cc2)C(=O)c2ccccc2C1=O
- MIC (Escherichia coli [1]): inactive
- diameter of the inhibition zone (DIZ) (Mycobacterium [2]): 0 mm
- diameter of the inhibition zone (DIZ) (Staphylococcus aureus [3]): 0 mm
- diameter of the inhibition zone (DIZ) (Aspergillus niger [4]): 0 mm
- diameter of the inhibition zone (DIZ) (Yamadazyma tenuis [5]): 0 mm
- diameter of the inhibition zone (DIZ) (Yamadazyma tenuis [6]): 0 mm
- diameter of the inhibition zone (DIZ) (Aspergillus niger [7]): 0 mm
- MIC (Mycobacterium [8]): 125 µg/mL (≈ 383 µM)
- diameter of the inhibition zone (DIZ) (Mycobacterium [9]): 0 mm
- diameter of the inhibition zone (DIZ) (Escherichia coli [10]): 0 mm
- MIC (Yamadazyma tenuis [11]): 31.2 µg/mL (≈ 95.6 µM)
- MIC (Aspergillus niger [12]): 15.6 µg/mL (≈ 47.8 µM)
- diameter of the inhibition zone (DIZ) (Staphylococcus aureus [13]): 0 mm
- MIC (Staphylococcus aureus [14]): inactive
- diameter of the inhibition zone (DIZ) (Escherichia coli [15]): 0 mm

The next lines start with results.

- MIC (Escherichia coli [1]): inactive
- MIC (Mycobacterium [8]): 250 µg/mL (≈ 628 µM)
- MIC (Yamadazyma tenuis [11]): inactive
- MIC (Aspergillus niger [12]): inactive
- MIC (Staphylococcus aureus [14]): inactive
SMILES: O=C1C(SCc2ccc(Cl)cc2)=C(N2CCCCC2)C(=O)c2ccccc21
- diameter of the inhibition zone (DIZ) (Mycobacterium [2]): 0 mm
- diameter of the inhibition zone (DIZ) (Staphylococcus aureus [3]): 0 mm
- diameter of the inhibition zone (DIZ) (Aspergillus niger [4]): 0 mm
- diameter of the inhibition zone (DIZ) (Yamadazyma tenuis [5]): 0 mm
- diameter of the inhibition zone (DIZ) (Yamadazyma tenuis [6]): 0 mm
- diameter of the inhibition zone (DIZ) (Aspergillus niger [7]): 0 mm
- diameter of the inhibition zone (DIZ) (Mycobacterium [9]): 9 mm
- diameter of the inhibition zone (DIZ) (Escherichia coli [10]): 0 mm
- diameter of the inhibition zone (DIZ) (Staphylococcus aureus [13]): 0 mm
- diameter of the inhibition zone (DIZ) (Escherichia coli [15]): 0 mm

- MIC (Escherichia coli [1]): inactive
- MIC (Mycobacterium [8]): 125 µg/mL (≈ 326 µM)
- MIC (Yamadazyma tenuis [11]): 7.8 µg/mL (≈ 20.3 µM)
- MIC (Aspergillus niger [12]): 15.6 µg/mL (≈ 40.6 µM)
- MIC (Staphylococcus aureus [14]): 250 µg/mL (≈ 651 µM)
SMILES: O=C1C(SCc2ccc(Cl)cc2)=C(N2CCCC2)C(=O)c2ccccc21
- diameter of the inhibition zone (DIZ) (Mycobacterium [2]): 8.7 mm
- diameter of the inhibition zone (DIZ) (Staphylococcus aureus [3]): 0 mm
- diameter of the inhibition zone (DIZ) (Aspergillus niger [4]): 0 mm
- diameter of the inhibition zone (DIZ) (Yamadazyma tenuis [5]): 0 mm
- diameter of the inhibition zone (DIZ) (Yamadazyma tenuis [6]): 0 mm
- diameter of the inhibition zone (DIZ) (Aspergillus niger [7]): 0 mm
- diameter of the inhibition zone (DIZ) (Mycobacterium [9]): 14.4 mm
- diameter of the inhibition zone (DIZ) (Escherichia coli [10]): 0 mm
- diameter of the inhibition zone (DIZ) (Staphylococcus aureus [13]): 0 mm
- diameter of the inhibition zone (DIZ) (Escherichia coli [15]): 0 mm
